The results in this text go back to article PMC4646072 (Chemistry (Weinheim an der Bergstrasse, Germany), 2015).

The assay addresses AgtA (His6AgtA) (Dictyostelium discoideum, UniProt Q54RP0). Briefly: radiometric galactosyl transfer from UDP-[3H]Gal. As to conditions: 10 µM UDP-[3H]Gal, 60 min; acceptor substrate. The class given is biochemical.

Chain of AgtA (His6AgtA) (Q54RP0 whole entry): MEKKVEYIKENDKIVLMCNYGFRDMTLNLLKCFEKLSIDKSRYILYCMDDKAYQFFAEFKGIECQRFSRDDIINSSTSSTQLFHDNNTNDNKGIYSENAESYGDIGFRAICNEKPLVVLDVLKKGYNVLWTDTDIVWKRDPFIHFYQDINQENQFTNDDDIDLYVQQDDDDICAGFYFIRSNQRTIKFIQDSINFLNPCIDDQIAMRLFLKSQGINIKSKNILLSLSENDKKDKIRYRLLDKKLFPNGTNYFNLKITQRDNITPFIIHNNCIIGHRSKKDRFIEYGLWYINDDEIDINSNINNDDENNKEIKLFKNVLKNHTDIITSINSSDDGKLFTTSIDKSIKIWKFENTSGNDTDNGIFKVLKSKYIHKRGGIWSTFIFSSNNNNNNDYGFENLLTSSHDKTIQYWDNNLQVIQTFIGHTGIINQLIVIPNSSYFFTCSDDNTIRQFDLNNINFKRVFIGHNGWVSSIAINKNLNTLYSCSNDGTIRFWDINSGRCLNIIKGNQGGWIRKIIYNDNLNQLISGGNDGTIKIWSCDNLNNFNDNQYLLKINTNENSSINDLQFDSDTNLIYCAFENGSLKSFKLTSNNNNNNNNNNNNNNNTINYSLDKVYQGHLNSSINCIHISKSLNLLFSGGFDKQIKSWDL

Turning to `C[C@@H]1O[C@@H](Oc2ccc([N+](=O)[O-])cc2)[C@@H](O)[C@H](O)[C@@H]1O` [F-pNP], the “radiometric galactosyl transfer from UDP-[3H]Gal” value was “Comparison of AgtA activity towards F-pNP and FGGn-pNP”.
